In patent US20240415914A1, “Water Dispersible Cannabinoid Compositions” (priority 2021, published 2024):

Assay: Stability of cannabinoid and Vitamin E components of Beverage 1 (AB White) stored at 8° C. and 21-25° C., LCMSMS over 570 days
Format: physicochemical
Conditions: for Stability in AB White, 8° C. (content by LCMSMS): beverage stored at 8° C.; for Stability in AB White, 21-25° C. (content by LCMSMS): beverage stored at 21-25° C.
Method: The LCMSMS was calibrated for 0-1000 ng/ml cannabinoids with the same resin material used in the preparation of the concentrates. At each time period, 100 ml of beverage was diluted with 10 ml of methanol and injected into the LCMSMS for analysis.

CCCCCc1cc2c(c(O)c1C(=O)O)[C@@H]1C=C(C)CC[C@H]1C(C)(C)O2 [D9 THCA, delta-9-tetrahydrocannabinolic acid]
Stability in AB White, 8° C. (content by LCMSMS) (day 0): 0.950 µg/mL | Stability in AB White, 8° C. (content by LCMSMS) (day 1): 0.956 µg/mL | Stability in AB White, 8° C. (content by LCMSMS) (day 2): 0.954 µg/mL | Stability in AB White, 8° C. (content by LCMSMS) (day 3): 0.934 µg/mL | Stability in AB White, 8° C. (content by LCMSMS) (day 5): 0.956 µg/mL | Stability in AB White, 8° C. (content by LCMSMS) (day 8): 0.949 µg/mL | Stability in AB White, 8° C. (content by LCMSMS) (day 9): 0.937 µg/mL | Stability in AB White, 8° C. (content by LCMSMS) (day 10): 0.960 µg/mL | Stability in AB White, 8° C. (content by LCMSMS) (day 11): 0.929 µg/mL | Stability in AB White, 8° C. (content by LCMSMS) (day 12): 0.942 µg/mL | Stability in AB White, 8° C. (content by LCMSMS) (day 15): 0.944 µg/mL | Stability in AB White, 8° C. (content by LCMSMS) (day 16): 0.932 µg/mL | Stability in AB White, 8° C. (content by LCMSMS) (day 17): 0.951 µg/mL | Stability in AB White, 8° C. (content by LCMSMS) (day 18): 0.950 µg/mL | Stability in AB White, 8° C. (content by LCMSMS) (day 19): 0.959 µg/mL | Stability in AB White, 8° C. (content by LCMSMS) (day 22): 0.960 µg/mL | Stability in AB White, 8° C. (content by LCMSMS) (day 23): 0.931 µg/mL | Stability in AB White, 8° C. (content by LCMSMS) (day 24): 0.926 µg/mL | Stability in AB White, 8° C. (content by LCMSMS) (day 25): 0.957 µg/mL | Stability in AB White, 8° C. (content by LCMSMS) (day 26): 0.956 µg/mL | Stability in AB White, 8° C. (content by LCMSMS) (day 29): 0.939 µg/mL | Stability in AB White, 8° C. (content by LCMSMS) (day 30): 0.955 µg/mL | Stability in AB White, 8° C. (content by LCMSMS) (day 60): 0.914 µg/mL | Stability in AB White, 8° C. (content by LCMSMS) (day 90): 0.948 µg/mL | Stability in AB White, 8° C. (content by LCMSMS) (day 120): 0.932 µg/mL | Stability in AB White, 8° C. (content by LCMSMS) (day 150): 0.952 µg/mL | Stability in AB White, 8° C. (content by LCMSMS) (day 180): 0.941 µg/mL | Stability in AB White, 8° C. (content by LCMSMS) (day 210): 0.923 µg/mL | Stability in AB White, 8° C. (content by LCMSMS) (day 240): 0.932 µg/mL | Stability in AB White, 8° C. (content by LCMSMS) (day 270): 0.933 µg/mL | Stability in AB White, 8° C. (content by LCMSMS) (day 300): 0.939 µg/mL | Stability in AB White, 8° C. (content by LCMSMS) (day 330): 0.909 µg/mL | Stability in AB White, 8° C. (content by LCMSMS) (day 360): 0.913 µg/mL | Stability in AB White, 8° C. (content by LCMSMS) (day 390): 0.923 µg/mL | Stability in AB White, 8° C. (content by LCMSMS) (day 420): 0.916 µg/mL | Stability in AB White, 8° C. (content by LCMSMS) (day 450): 0.923 µg/mL | Stability in AB White, 8° C. (content by LCMSMS) (day 480): 0.905 µg/mL | Stability in AB White, 8° C. (content by LCMSMS) (day 510): 0.873 µg/mL | Stability in AB White, 8° C. (content by LCMSMS) (day 540): 0.877 µg/mL | Stability in AB White, 8° C. (content by LCMSMS) (day 570): 0.872 µg/mL | Stability in AB White, 21-25° C. (content by LCMSMS) (day 0): 0.950 µg/mL | Stability in AB White, 21-25° C. (content by LCMSMS) (day 1): 0.960 µg/mL | Stability in AB White, 21-25° C. (content by LCMSMS) (day 2): 0.938 µg/mL | Stability in AB White, 21-25° C. (content by LCMSMS) (day 3): 0.920 µg/mL | Stability in AB White, 21-25° C. (content by LCMSMS) (day 5): 0.958 µg/mL | Stability in AB White, 21-25° C. (content by LCMSMS) (day 8): 0.937 µg/mL | Stability in AB White, 21-25° C. (content by LCMSMS) (day 9): 0.926 µg/mL | Stability in AB White, 21-25° C. (content by LCMSMS) (day 10): 0.935 µg/mL | Stability in AB White, 21-25° C. (content by LCMSMS) (day 11): 0.949 µg/mL | Stability in AB White, 21-25° C. (content by LCMSMS) (day 12): 0.935 µg/mL | Stability in AB White, 21-25° C. (content by LCMSMS) (day 15): 0.948 µg/mL | Stability in AB White, 21-25° C. (content by LCMSMS) (day 16): 0.921 µg/mL | Stability in AB White, 21-25° C. (content by LCMSMS) (day 17): 0.919 µg/mL | Stability in AB White, 21-25° C. (content by LCMSMS) (day 18): 0.928 µg/mL | Stability in AB White, 21-25° C. (content by LCMSMS) (day 19): 0.917 µg/mL | Stability in AB White, 21-25° C. (content by LCMSMS) (day 22): 0.947 µg/mL | Stability in AB White, 21-25° C. (content by LCMSMS) (day 23): 0.924 µg/mL | Stability in AB White, 21-25° C. (content by LCMSMS) (day 24): 0.927 µg/mL | Stability in AB White, 21-25° C. (content by LCMSMS) (day 25): 0.948 µg/mL | Stability in AB White, 21-25° C. (content by LCMSMS) (day 26): 0.921 µg/mL | Stability in AB White, 21-25° C. (content by LCMSMS) (day 29): 0.922 µg/mL | Stability in AB White, 21-25° C. (content by LCMSMS) (day 30): 0.934 µg/mL | Stability in AB White, 21-25° C. (content by LCMSMS) (day 60): 0.896 µg/mL | Stability in AB White, 21-25° C. (content by LCMSMS) (day 90): 0.892 µg/mL | Stability in AB White, 21-25° C. (content by LCMSMS) (day 120): 0.894 µg/mL | Stability in AB White, 21-25° C. (content by LCMSMS) (day 150): 0.934 µg/mL | Stability in AB White, 21-25° C. (content by LCMSMS) (day 180): 0.945 µg/mL | Stability in AB White, 21-25° C. (content by LCMSMS) (day 210): 0.913 µg/mL | Stability in AB White, 21-25° C. (content by LCMSMS) (day 240): 0.892 µg/mL | Stability in AB White, 21-25° C. (content by LCMSMS) (day 270): 0.905 µg/mL | Stability in AB White, 21-25° C. (content by LCMSMS) (day 300): 0.888 µg/mL | Stability in AB White, 21-25° C. (content by LCMSMS) (day 330): 0.894 µg/mL | Stability in AB White, 21-25° C. (content by LCMSMS) (day 360): 0.925 µg/mL | Stability in AB White, 21-25° C. (content by LCMSMS) (day 390): 0.907 µg/mL | Stability in AB White, 21-25° C. (content by LCMSMS) (day 420): 0.909 µg/mL | Stability in AB White, 21-25° C. (content by LCMSMS) (day 450): 0.921 µg/mL | Stability in AB White, 21-25° C. (content by LCMSMS) (day 480): 0.873 µg/mL | Stability in AB White, 21-25° C. (content by LCMSMS) (day 510): 0.903 µg/mL | Stability in AB White, 21-25° C. (content by LCMSMS) (day 540): 0.877 µg/mL | Stability in AB White, 21-25° C. (content by LCMSMS) (day 570): 0.877 µg/mL
